Source: ChEMBL document CHEMBL4028801, “A multifactorial approach to hepatobiliary transporter assessment enables improved therapeutic compound development” (Toxicol Sci, 2013)
pIC50: −log10 of the molar value.

Assays:
[1] = AUC in human at 6 to 12 mg, po BID after 12 hrs; type: ADME, organism-based; conditions: in vivo
[2] = Ratio of drug concentration at steady state in human at 6 to 12 mg, po BID after 12 hrs to IC50 for human BSEP overexpressed in Sf9 insect cells; type: ADME, organism-based; conditions: in vivo
[3] = biological target: ATP-binding cassette sub-family C member 3 (Homo sapiens, UniProt O15438); assay: Inhibition of human MRP3 overexpressed in Sf9 insect cell membrane vesicles assessed as uptake of [3H]-estradiol-17beta-D-glucuronide in presence of ATP and GSH measured after 10 mins by membrane vesicle transport assay; type: ADME, cell-based
ATP-binding cassette sub-family C member 3, sequence (O15438 whole entry): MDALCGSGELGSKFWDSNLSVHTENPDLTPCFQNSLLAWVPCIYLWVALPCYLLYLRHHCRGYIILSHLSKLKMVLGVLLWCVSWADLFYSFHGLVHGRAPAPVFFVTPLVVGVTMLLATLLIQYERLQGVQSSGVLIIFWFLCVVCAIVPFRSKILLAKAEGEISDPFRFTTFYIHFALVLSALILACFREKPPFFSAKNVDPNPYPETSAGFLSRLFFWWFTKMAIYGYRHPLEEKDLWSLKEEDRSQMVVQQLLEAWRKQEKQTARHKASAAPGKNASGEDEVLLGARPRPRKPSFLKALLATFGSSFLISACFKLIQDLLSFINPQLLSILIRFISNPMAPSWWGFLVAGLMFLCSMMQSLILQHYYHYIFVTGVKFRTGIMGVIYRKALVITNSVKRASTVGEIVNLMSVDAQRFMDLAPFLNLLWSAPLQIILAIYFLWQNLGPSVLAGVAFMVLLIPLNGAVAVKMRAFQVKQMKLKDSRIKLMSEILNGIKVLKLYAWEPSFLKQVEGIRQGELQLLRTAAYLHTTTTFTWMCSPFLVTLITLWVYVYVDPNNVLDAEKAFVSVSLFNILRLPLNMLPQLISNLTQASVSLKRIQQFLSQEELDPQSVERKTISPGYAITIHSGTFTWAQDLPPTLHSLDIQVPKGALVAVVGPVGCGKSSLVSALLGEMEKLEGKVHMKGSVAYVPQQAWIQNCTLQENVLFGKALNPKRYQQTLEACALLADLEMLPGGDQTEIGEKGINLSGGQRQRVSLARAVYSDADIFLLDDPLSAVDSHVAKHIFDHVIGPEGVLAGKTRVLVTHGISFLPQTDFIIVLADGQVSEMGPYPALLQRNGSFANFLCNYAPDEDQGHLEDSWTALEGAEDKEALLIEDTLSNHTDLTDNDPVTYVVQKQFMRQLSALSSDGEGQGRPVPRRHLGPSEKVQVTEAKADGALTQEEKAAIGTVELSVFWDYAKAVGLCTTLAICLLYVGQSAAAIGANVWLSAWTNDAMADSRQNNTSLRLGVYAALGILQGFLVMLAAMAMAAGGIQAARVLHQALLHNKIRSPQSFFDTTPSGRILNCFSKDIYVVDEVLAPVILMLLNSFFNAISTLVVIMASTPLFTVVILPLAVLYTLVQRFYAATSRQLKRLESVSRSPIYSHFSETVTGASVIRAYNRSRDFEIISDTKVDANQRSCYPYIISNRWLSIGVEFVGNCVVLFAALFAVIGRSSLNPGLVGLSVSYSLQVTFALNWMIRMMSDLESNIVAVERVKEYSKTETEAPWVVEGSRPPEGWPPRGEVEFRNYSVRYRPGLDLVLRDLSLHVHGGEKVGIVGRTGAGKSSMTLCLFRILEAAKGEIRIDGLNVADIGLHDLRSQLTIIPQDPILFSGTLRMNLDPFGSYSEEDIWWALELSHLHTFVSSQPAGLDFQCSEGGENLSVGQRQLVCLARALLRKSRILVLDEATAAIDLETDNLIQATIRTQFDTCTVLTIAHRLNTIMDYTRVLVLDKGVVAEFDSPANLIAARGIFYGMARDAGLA

[4] = Drug concentration at steady state in human at 6 to 12 mg, po BID after 12 hrs; type: ADME, organism-based; conditions: in vivo, read-out: Css
[5] = biological target: ATP-binding cassette sub-family C member 2 (Homo sapiens, UniProt Q92887); assay: Inhibition of human MRP2 overexpressed in Sf9 cell membrane vesicles assessed as uptake of [3H]-estradiol-17beta-D-glucuronide in presence of ATP and GSH measured after 20 mins by membrane vesicle transport assay
ATP-binding cassette sub-family C member 2, sequence (Q92887 whole entry): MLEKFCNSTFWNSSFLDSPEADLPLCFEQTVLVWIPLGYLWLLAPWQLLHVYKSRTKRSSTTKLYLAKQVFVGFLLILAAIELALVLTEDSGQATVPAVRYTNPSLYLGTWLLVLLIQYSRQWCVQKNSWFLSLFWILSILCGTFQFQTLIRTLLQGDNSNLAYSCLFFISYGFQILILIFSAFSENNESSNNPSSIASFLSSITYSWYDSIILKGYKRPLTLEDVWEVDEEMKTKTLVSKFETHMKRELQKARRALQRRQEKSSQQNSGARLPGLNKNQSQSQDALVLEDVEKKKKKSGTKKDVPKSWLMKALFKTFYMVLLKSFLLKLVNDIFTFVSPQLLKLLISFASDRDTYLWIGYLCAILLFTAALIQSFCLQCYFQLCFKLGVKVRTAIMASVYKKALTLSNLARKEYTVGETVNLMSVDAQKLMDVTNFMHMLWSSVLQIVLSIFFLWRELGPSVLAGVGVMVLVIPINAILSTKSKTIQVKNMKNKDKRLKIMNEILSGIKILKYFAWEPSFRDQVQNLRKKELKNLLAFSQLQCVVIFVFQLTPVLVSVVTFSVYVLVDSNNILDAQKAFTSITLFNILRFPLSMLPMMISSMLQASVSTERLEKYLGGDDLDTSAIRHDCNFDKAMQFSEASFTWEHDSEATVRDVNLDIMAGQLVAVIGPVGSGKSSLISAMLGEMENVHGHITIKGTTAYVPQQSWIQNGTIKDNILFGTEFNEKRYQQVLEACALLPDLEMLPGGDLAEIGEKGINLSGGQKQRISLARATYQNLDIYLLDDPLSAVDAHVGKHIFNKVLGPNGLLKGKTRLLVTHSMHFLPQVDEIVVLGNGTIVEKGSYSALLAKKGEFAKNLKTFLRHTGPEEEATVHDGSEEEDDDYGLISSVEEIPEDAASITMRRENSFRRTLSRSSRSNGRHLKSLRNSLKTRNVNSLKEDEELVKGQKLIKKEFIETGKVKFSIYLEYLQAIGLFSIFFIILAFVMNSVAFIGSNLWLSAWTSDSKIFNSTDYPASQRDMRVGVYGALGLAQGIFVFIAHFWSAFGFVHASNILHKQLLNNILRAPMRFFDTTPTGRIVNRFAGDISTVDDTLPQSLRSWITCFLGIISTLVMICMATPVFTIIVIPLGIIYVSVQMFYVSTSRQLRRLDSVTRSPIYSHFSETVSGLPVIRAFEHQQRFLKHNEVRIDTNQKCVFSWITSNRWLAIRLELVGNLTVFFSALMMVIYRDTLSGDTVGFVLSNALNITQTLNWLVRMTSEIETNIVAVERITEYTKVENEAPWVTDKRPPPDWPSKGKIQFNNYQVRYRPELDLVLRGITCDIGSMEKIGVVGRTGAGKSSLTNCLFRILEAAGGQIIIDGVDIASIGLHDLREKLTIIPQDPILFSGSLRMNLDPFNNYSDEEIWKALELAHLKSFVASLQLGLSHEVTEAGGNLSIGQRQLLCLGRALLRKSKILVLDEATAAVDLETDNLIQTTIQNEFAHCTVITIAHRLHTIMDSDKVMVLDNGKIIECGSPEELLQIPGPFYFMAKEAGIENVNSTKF

Bile salt export pump = Bile salt export pump (Homo sapiens, UniProt O95342); assay: Inhibition of human BSEP overexpressed in Sf9 cell membrane vesicles assessed as uptake of [3H]-taurocholate in presence of ATP measured after 15 to 20 mins by membrane vesicle transport assay; type: ADME, cell-based
Bile salt export pump, sequence (O95342 whole entry): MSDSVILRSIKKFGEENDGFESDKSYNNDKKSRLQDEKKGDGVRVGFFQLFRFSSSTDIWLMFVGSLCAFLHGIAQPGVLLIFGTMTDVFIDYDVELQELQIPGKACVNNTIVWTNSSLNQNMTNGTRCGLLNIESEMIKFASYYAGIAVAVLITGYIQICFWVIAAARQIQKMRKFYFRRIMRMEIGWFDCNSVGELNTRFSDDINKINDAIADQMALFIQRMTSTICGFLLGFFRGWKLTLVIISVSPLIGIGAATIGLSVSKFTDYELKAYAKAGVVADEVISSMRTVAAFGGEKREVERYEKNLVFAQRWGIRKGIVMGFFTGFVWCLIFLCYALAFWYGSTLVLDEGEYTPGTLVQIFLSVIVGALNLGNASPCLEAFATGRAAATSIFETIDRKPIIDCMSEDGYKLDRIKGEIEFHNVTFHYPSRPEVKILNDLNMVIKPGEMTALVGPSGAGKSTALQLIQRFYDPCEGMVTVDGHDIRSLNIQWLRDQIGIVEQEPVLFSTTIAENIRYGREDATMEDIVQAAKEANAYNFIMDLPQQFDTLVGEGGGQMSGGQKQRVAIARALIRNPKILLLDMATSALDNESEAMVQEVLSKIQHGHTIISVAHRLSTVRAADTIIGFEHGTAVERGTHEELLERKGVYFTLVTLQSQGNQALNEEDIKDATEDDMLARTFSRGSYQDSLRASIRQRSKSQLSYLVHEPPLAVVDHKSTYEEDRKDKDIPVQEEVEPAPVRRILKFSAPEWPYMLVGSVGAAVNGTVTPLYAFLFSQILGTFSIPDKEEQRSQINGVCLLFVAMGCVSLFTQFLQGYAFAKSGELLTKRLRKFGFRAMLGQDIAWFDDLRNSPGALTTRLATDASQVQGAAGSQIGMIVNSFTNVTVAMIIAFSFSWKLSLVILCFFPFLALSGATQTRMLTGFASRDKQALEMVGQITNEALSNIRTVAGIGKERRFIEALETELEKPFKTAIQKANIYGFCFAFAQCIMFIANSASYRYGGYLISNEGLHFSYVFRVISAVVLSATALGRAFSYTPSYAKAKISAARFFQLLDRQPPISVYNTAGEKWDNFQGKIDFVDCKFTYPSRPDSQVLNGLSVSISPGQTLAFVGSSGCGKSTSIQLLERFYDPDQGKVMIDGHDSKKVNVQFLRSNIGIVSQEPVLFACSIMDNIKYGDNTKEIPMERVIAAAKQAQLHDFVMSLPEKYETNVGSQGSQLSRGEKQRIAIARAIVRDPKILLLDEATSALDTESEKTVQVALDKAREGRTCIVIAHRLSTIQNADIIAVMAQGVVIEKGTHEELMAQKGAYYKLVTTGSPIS

[6] = biological target: T1, ATP-binding cassette sub-family C member 4 (Homo sapiens, UniProt O15439); assay: Inhibition of human MRP4 overexpressed in Sf9 cell membrane vesicles assessed as uptake of [3H]-estradiol-17beta-D-glucuronide in presence of ATP and GSH measured after 20 mins by membrane vesicle transport assay; type: ADME, cell-based
T1 sequence (O15439 whole entry): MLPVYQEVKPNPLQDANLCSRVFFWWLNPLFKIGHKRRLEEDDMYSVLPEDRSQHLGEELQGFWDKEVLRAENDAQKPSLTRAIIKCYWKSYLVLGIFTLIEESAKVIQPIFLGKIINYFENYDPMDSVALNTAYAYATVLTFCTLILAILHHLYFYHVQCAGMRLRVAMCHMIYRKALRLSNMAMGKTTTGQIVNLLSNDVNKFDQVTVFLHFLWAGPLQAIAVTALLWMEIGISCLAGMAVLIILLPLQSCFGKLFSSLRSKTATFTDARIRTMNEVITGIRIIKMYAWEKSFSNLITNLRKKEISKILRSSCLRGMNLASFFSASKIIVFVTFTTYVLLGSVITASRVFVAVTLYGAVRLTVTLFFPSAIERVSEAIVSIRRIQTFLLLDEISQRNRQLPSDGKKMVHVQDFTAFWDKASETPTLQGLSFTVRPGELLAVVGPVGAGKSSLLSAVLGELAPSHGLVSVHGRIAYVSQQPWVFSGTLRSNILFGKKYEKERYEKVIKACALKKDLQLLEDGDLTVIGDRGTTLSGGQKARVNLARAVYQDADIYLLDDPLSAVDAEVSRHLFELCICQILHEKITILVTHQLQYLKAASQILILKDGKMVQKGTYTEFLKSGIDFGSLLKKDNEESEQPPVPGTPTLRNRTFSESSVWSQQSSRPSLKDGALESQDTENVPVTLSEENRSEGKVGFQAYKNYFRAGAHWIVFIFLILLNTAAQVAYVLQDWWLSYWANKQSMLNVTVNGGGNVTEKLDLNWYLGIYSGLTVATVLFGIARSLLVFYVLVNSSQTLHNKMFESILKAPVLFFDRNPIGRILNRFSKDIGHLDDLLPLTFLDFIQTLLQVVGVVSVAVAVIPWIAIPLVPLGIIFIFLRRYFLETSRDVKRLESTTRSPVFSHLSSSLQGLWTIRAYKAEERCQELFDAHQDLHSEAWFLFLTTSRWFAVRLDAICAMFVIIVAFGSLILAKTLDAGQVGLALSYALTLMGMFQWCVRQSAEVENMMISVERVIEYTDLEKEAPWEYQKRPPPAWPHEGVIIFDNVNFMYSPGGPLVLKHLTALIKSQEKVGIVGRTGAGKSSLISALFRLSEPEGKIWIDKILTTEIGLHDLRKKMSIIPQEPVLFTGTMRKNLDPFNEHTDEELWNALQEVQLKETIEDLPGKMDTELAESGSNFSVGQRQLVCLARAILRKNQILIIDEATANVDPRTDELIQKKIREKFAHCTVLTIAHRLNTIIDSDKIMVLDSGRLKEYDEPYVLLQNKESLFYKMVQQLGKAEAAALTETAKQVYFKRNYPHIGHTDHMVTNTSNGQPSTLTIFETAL

[7] = AUC in human at 5 to 80 mg, po QD after 24 hrs; type: ADME, organism-based; conditions: in vivo
[8] = Drug concentration at steady state in human at 5 to 80 mg, po QD after 24 hrs; type: ADME, organism-based; conditions: in vivo, read-out: Css
clinical [9] = conditions: human, in vivo, po
Homo sapiens = assay: Drug concentration at steady state in human at 0.01 to 0.04 mg/kg, po after 24 hrs; type: ADME, organism-based; conditions: in vivo
[10] = AUC in human at 2.5 to 20 mg, po QD after 24 hrs; type: ADME, organism-based; conditions: in vivo
[11] = Drug concentration at steady state in human at 2.5 to 20 mg, po QD after 24 hrs; type: ADME, organism-based; conditions: in vivo, read-out: Css
[12] = Ratio of drug concentration at steady state in human at 2.5 to 20 mg, po QD after 24 hrs to IC50 for human BSEP overexpressed in Sf9 insect cells; type: ADME, organism-based; conditions: in vivo
[13] = AUC in human at 0.5 to 4 mg, po BID/TID/QID after 6 hrs; type: ADME, organism-based; conditions: in vivo
[14] = Drug concentration at steady state in human at 0.5 to 4 mg, po BID/TID/QID after 6 hrs; type: ADME, organism-based; conditions: in vivo, read-out: Css
[15] = Ratio of drug concentration at steady state in human at 0.5 to 4 mg, po BID/TID/QID after 6 hrs to IC50 for human BSEP overexpressed in Sf9 insect cells; type: ADME, organism-based; conditions: in vivo
[16] = Ratio of drug concentration at steady state in human at 0.5 to 4 mg, po BID/TID/QID after 6 hrs to IC50 for human MRP3 overexpressed in Sf9 insect cells; type: ADME, organism-based; conditions: in vivo
[17] = Ratio of drug concentration at steady state in human at 0.5 to 4 mg, po BID/TID/QID after 6 hrs to IC50 for human MRP2 overexpressed in Sf9 insect cells; type: ADME, organism-based; conditions: in vivo
[18] = Ratio of drug concentration at steady state in human at 0.5 to 4 mg, po BID/TID/QID after 6 hrs to IC50 for human MRP4 overexpressed in Sf9 insect cells; type: ADME, organism-based; conditions: in vivo
[19] = Drug concentration at steady state in human at 0.35 mg, po QD after 24 hrs; type: ADME, organism-based; conditions: in vivo, read-out: Css
[20] = AUC in human at 0.35 mg, po QD after 24 hrs; type: ADME, organism-based; parameters: time < 24 hr, dose 0.35 mg, route oral; conditions: in vivo
[21] = Ratio of drug concentration at steady state in human at 0.35 mg, po QD after 24 hrs to IC50 for human BSEP overexpressed in Sf9 insect cells; type: ADME, organism-based; conditions: in vivo
[22] = Drug concentration at steady state in human at 1.5 ug administered as 1 drop intraocularly QD after 24 hrs; type: ADME; conditions: in vivo, topical or ocular, read-out: Css
[23] = AUC in human at 1.5 ug administered as 1 drop intraocularly QD after 24 hrs; type: ADME; parameters: dose 1.5 ug, time < 24 hr, route intraocular; conditions: in vivo, topical or ocular
[24] = Ratio of drug concentration at steady state in human at 1.5 ug administered as 1 drop intraocularly QD after 24 hrs to IC50 for human BSEP overexpressed in Sf9 insect cells; type: ADME; conditions: in vivo, topical_or_ocular
[25] = Ratio of drug concentration at steady state in human at 60 to 250 mg, po QD after 12 hrs to IC50 for human BSEP overexpressed in Sf9 insect cells; type: ADME, organism-based; conditions: in vivo
[26] = AUC in human at 60 to 250 mg, po QD after 12 hrs; type: ADME, organism-based; conditions: in vivo
[27] = Drug concentration at steady state in human at 60 to 250 mg, po QD after 12 hrs; type: ADME, organism-based; conditions: in vivo, read-out: Css
[28] = AUC in human at 10 to 80 mg, po QD after 24 hrs; type: ADME, organism-based; conditions: in vivo
clinical [29] = conditions: human, in vivo, po; remark: listed apart in the source
Description: Drug concentration at steady state in human at 10 to 80 mg, po QD after 24 hrs

[30] = Ratio of drug concentration at steady state in human at 20 to 60 mg, po QD after 24 hrs to IC50 for human BSEP overexpressed in Sf9 insect cells; type: ADME, organism-based; conditions: in vivo
[31] = AUC in human at 20 to 60 mg, po QD after 24 hrs; type: ADME, organism-based; conditions: in vivo
[32] = Ratio of drug concentration at steady state in human at 20 to 60 mg, po QD after 24 hrs to IC50 for human MRP4 overexpressed in Sf9 insect cells; type: ADME, organism-based; conditions: in vivo
[33] = Drug concentration at steady state in human at 20 to 60 mg, po QD after 24 hrs; type: ADME, organism-based; conditions: in vivo, read-out: Css
[34] = Ratio of drug concentration at steady state at 1% applied topically BID after 12 hrs to IC50 for human BSEP overexpressed in Sf9 insect cells; type: ADME; conditions: topical_or_ocular
[35] = Drug concentration in human at steady state at 1% applied topically BID after 12 hrs; type: ADME; conditions: topical or ocular, read-out: Css
[36] = AUC in human at 1% applied topically BID after 12 hrs; type: ADME; parameters: time < 12 hr; conditions: topical or ocular

Structure (SMILES)	pIC50 [3]	pIC50 [5]	pIC50 (Bile salt export pump)	pIC50 [6]	other results
COc1cc(C(C)=O)ccc1OCCCN1CCC(c2noc3cc(F)ccc23)CC1 [ILOPERIDONE]	< 3.88	< 3.88	4.63	< 3.88	AUC at 12 h [1]: 0.106 µM·h; Ratio [2]: 0.00038; concentration at 12 h [4]: 9 nM
CCC(C)(C)C(=O)O[C@H]1C[C@@H](C)C=C2C=C[C@H](C)[C@H](CC[C@@H]3C[C@@H](O)CC(=O)O3)[C@H]21 [SIMVASTATIN]	< 3.88	< 3.88	–	< 3.88	AUC at 24 h [7]: 0.212 µM·h; concentration at 24 h [8]: 9 nM
Cc1ncc2n1-c1ccc(Cl)cc1C(c1ccccc1F)=NC2 [MIDAZOLAM]	–	–	–	–	AUC at 24 h (clinical [9]): 0.369 µM·h; Css (Homo sapiens): 15 nM
COC(=O)C1=C(C)NC(C)=C(C(=O)OC(C)C)C1c1cccc2nonc12 (stereo not drawn) [ISRADIPINE]	< 3.88	< 3.88	4.55	< 3.88	AUC at 24 h [10]: 0.197 µM·h; concentration at 24 h [11]: 8 nM; Ratio [12]: 0.0003
CCOc1cc(CC(=O)N[C@@H](CC(C)C)c2ccccc2N2CCCCC2)ccc1C(=O)O [REPAGLINIDE]	4.78	4.14	4.66	4.27	AUC at 6 h [13]: 0.099 µM·h; concentration at 6 h [14]: 16 nM; Ratio [15]: 0.00075; Ratio [16]: 0.001; Ratio [17]: 0; Ratio [18]: 0
C#C[C@@]1(OC(C)=O)CC[C@H]2[C@@H]3CCC4=CC(=O)CC[C@@H]4[C@H]3CC[C@@]21C	< 3.88	< 3.88	4.44	< 3.88	concentration at 24 h [19]: 21 nM; AUC at 24 h [20]: 0.494 µM·h; Ratio [21]: 0.00057
CC(C)OC(=O)CCC/C=C\C[C@@H]1[C@@H](CC[C@@H](O)CCc2ccccc2)[C@H](O)C[C@@H]1O [LATANOPROST]	< 3.88	< 3.88	4.89	< 3.88	concentration at 24 h [22]: 2 nM; AUC at 24 h [23]: 0.047 µM·h; Ratio [24]: 0.00015
CN1CCN(C2=Nc3ccccc3Oc3ccc(Cl)cc32)CC1.O=C(O)CCC(=O)O [LOXAPINE SUCCINATE]	< 3.88	< 3.88	4.11	< 3.88	Ratio [25]: 0.0004; AUC at 12 h [26]: 0.369 µM·h; concentration at 12 h [27]: 31 nM
CC[C@H](C)C(=O)O[C@H]1C[C@@H](C)C=C2C=C[C@H](C)[C@H](CC[C@@H]3C[C@@H](O)CC(=O)O3)[C@H]21 [LOVASTATIN]	< 3.88	< 3.88	4.71	< 3.88	AUC at 24 h [28]: 0.238 µM·h; concentration at 24 h (clinical [29]): 10 nM
COC(=O)C1=C(C)NC(C)=C(C(=O)OCC(C)C)C1c1ccccc1[N+](=O)[O-] (stereo not drawn) [NISOLDIPINE]	< 3.88	< 3.88	4.48	4.78	Ratio [30]: 0.00017; AUC at 24 h [31]: 0.134 µM·h; Ratio [32]: 0; concentration at 24 h [33]: 6 nM
CC[C@@H]1/C=C(\C)C[C@H](C)C[C@H](OC)[C@H]2O[C@@](O)(C(=O)C(=O)N3CCCC[C@H]3C(=O)O[C@H](/C(C)=C/[C@@H]3CC[C@H](Cl)[C@H](OC)C3)[C@H](C)[C@@H](O)CC1=O)[C@H](C)C[C@@H]2OC [PIMECROLIMUS]	< 3.88	< 3.88	5.00	< 3.88	Ratio [34]: 0.00019; concentration at 12 h [35]: 2 nM; AUC at 12 h [36]: 0.023 µM·h
